Assay results reported in patent publication US10717750B2, “68Ga-labeled NOTA-chelated PSMA-targeted imaging and therapeutic agents” (THE JOHNS HOPKINS UNIVERSITY, priority 2009, dated 2020).
pKi: −log10 of the molar value. “Also recorded” adds a separate entry of the source. Like-named read-outs stand apart in the source and are kept apart here.

Columns and labels:
PSMA = target: T1, PSMA (Homo sapiens, UniProt Q04609); experiment: PSMA inhibition assay (fluorescence-based, NAAG hydrolysis, Amplex Red); format: biochemical; conditions: for pKi: lysates of LNCaP cell extracts, 4 μM NAAG, Cheng-Prusoff conversion
T1 construct: endogenous in cells; host or cells: LNCaP cell lysate
T1 sequence (Q04609 whole entry): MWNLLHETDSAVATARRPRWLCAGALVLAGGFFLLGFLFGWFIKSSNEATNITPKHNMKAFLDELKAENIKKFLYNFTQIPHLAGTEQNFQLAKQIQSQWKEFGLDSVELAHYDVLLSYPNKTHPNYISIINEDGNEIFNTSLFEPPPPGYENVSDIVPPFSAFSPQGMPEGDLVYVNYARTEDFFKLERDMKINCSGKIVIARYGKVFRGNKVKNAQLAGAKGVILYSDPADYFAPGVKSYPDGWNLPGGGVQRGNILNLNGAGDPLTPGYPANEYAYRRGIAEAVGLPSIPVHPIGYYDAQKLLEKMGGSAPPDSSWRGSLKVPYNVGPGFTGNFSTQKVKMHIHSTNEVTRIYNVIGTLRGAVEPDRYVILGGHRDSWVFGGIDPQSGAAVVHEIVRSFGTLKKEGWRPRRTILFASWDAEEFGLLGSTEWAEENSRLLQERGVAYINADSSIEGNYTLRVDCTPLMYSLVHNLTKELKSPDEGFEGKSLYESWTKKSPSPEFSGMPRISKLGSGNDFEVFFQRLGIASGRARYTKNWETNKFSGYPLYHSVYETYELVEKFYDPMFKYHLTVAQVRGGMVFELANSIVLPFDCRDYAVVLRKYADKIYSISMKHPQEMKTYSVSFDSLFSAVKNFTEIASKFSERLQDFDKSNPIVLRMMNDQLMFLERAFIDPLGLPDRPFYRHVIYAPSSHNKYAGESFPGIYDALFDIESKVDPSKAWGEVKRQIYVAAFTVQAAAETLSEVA
Procedure: The PSMA inhibitory activity of 1, 2 and DKFZ-PSMA-11 and the corresponding natural Ga-labeled analogs Ga-1 and Ga-2 were determined using a fluorescence-based assay according to a previously reported procedure (Banerjee et al. (2011) Angewandte Chemie 50, 9167-70) (Table 1). Briefly, lysates of LNCaP cell extracts (25 μL) were incubated with the inhibitor (12.5 μL) in the presence of 4 μM N-acetylaspartylglutamate (NAAG) (12.5 μL) for 2 h. The amount of the glutamate released by NAAG hydrolysis was measured by incubating with a working solution (50 μL) of the Amplex Red Glutamic Acid Kit (Life Technologies, Grand Island, N.Y.) for 1 h.
Fluorescence was measured with a VICTOR3V multilabel plate reader (Perkin Elmer Inc., Waltham, Mass.) with excitation at 490 nm and emission at 642 nm. Inhibition curves were determined using semi-log plots and IC50 values were determined at the concentration at which enzyme activity was inhibited by 50%. Enzyme inhibitory constants (Ki values) were generated using the Cheng-Prusoff conversion (Cheng et al. (1973) Biochemical pharmacology 22, 3099-108). Assays were performed in triplicate. Data analysis was performed using GraphPad Prism version 4.00 for Windows (GraphPad Software, San Diego, Calif.).

[1] = Hydrophilicity/lipophilicity judged from HPLC retention (RP C8); format: physicochemical; conditions: based on HPLC retention time
[2] = chelating agent with gallium, cited from earlier work
[3] = test system: PSMA+ PC3 PIP and PSMA− PC3 flu tumors; experiment: Tissue biodistribution in mice bearing PSMA+ PC3 PIP and PSMA− PC3 flu tumors; conditions: mouse, in vivo
[4] = test system: PSMA+ PC3 PIP and PSMA− PC3 flu tumors
[5] = 1 h post-injection, mean ± SD, n = 4
[6] = 2 h post-injection, mean ± SD, n = 4
[7] = 3 h post-injection, mean ± SD, n = 4

Compound: O=C(O)CCC(NC(=O)NC(CCCCNC(=O)CCCCCCC(=O)NCCCCC(NC(=O)C(Cc1ccccc1)NC(=O)C(Cc1ccccc1)NC(=O)CN1CCN(CC(=O)O)CCN(CC(=O)O)CCN(CC(=O)O)CC1)C(=O)O)C(=O)O)C(=O)O (centres unmarked) [Compound 1]
- pKi (PSMA): 9.15

Compound: O=C(O)CCC(NC(=O)NC(CCCCNC(=O)CCCCCCC(=O)NC(CCCCNC(=S)Nc1ccc(CC2CN(CC(=O)O)CCN(CC(=O)O)CCN2CC(=O)O)cc1)C(=O)O)C(=O)O)C(=O)O (centres unmarked) [Compound 2]
- pKi (PSMA): 9.09

Compound: O=C(O)CCc1ccc(O)c(CN(CCN(CC(=O)O)Cc2cc(CCC(=O)NCCCCCC(=O)NCCCC[C@H](NC(=O)N[C@@H](CCC(=O)O)C(=O)O)C(=O)O)ccc2O)CC(=O)O)c1 [DKFZ-PSMA-11, Glu-urea-Lys-(Ahx)-HBED-CC, reference compound]
- PSMA-binding affinity relative to Ga-1 and Ga-2 (PSMA): ten-fold higher
- pKi (PSMA): 10.52
- hydrophilicity/lipophilicity rank in the series [1]: least hydrophilic; also recorded: most lipophilic

Compound: O=C(O)CN1CCN(CC(=O)O)CCN(CC(=O)O)CCN(CC(=O)O)CC1 [DOTA, 1,4,7,10-tetraazacyclododecane-1,4,7,10-tetraacetic acid]
- stability constant, KML, for 68Ga ([2]; the values are: log stability constant): 21.3

Compound: O=C([O-])CN1CCN(CC(=O)[O-])CCN(CC(=O)NC(Cc2ccccc2)C(=O)NC(Cc2ccccc2)C(=O)NC(CCCCNC(=O)CCCCCCC(=O)NCCCCC(NC(=O)NC(CCC(=O)O)C(=O)O)C(=O)O)C(=O)O)CCN(CC(=O)[O-])CC1.[Ga+3] (centres unmarked) [Ga-1]
- pKi (PSMA): 9.48

Compound: O=C([O-])CN1CCN(CC(=O)[O-])CC(Cc2ccc(NC(=S)NCCCCC(NC(=O)CCCCCCC(=O)NCCCCC(NC(=O)NC(CCC(=O)O)C(=O)O)C(=O)O)C(=O)O)cc2)N(CC(=O)[O-])CC1.[Ga+3] (centres unmarked) [Ga-2]
- pKi (PSMA): 9.42

Compound: O=C([O-])CN(CCN(CC(=O)[O-])Cc1cc(CCC(=O)NCCCCCC(=O)NCCCCC(NC(=O)NC(CCC(=O)O)C(=O)O)C(=O)O)ccc1[O-])Cc1cc(CCC(=O)O)ccc1[O-].[Ga+3] (centres unmarked) [Ga-DKFZ-PSMA-11]
- hydrophilicity/lipophilicity rank in the series [1]: most hydrophilic

Compound: O=C(O)CN1CCN(CC(=O)O)CCN(CC(=O)O)CC1 [NOTA, 1,4,7-triazacyclononane-1,4,7-trisacetic acid]
- stability constant, KML, for 68Ga [2]: 31.1

Compound: O=C([O-])CN1CCN(CC(=O)[O-])CC(Cc2ccc(NC(=S)NCCCCC(NC(=O)CCCCCCC(=O)NCCCCC(NC(=O)NC(CCC(=O)O)C(=O)O)C(=O)O)C(=O)O)cc2)N(CC(=O)[O-])CC1.[68Ga+3] (centres unmarked) [^68Ga-2]
- rate of clearance from tissues, comparison of the three radiotracers [3]: fastest rate of clearance from all tissues

Compound: O=C([O-])CN(CCN(CC(=O)[O-])Cc1cc(CCC(=O)NCCCCCC(=O)NCCCCC(NC(=O)NC(CCC(=O)O)C(=O)O)C(=O)O)ccc1[O-])Cc1cc(CCC(=O)O)ccc1[O-].[68Ga+3] (centres unmarked) [^68Ga-DKFZ-PSMA-11, reference compound]
- hydrophilicity/lipophilicity rank in the series [1]: most hydrophilic
- PSMA+ PC3 PIP-to-PSMA− PC3 flu ratio ([4]; 1 h post-injection): 46.62±7.57
- PIP:blood ratio [4, 5]: 35.45 ± 13.43
- PIP:flu (PSMA+ PC3 PIP-to-PSMA− PC3 flu tumor uptake ratio) [4, 5]: 46.62 ± 17.57
- PSMA+ PC3 PIP tumor uptake [4, 5]: 25.96 ± 9.69 % ID/g
- PSMA− PC3 flu tumor uptake [4, 5]: 0.57 ± 0.14 % ID/g
- blood uptake [4, 5]: 0.75 ± 0.20 % ID/g
- heart uptake [4, 5]: 0.42 ± 0.16 % ID/g
- kidney uptake [4, 5]: 133.24 ± 21.08 % ID/g
- liver uptake [4, 5]: 0.75 ± 0.19 % ID/g
- lung uptake [4, 5]: 2.21 ± 0.48 % ID/g
- muscle uptake [4, 5]: 0.32 ± 0.12 % ID/g
- salivary gland uptake [4, 5]: 1.42 ± 0.33 % ID/g
- small intestine uptake [4, 5]: 0.39 ± 0.09 % ID/g
- spleen uptake [4, 5]: 12.35 ± 3.75 % ID/g
- PSMA+ PC3 PIP-to-PSMA− PC3 flu ratio ([4]; 2 h post-injection): 57.68±27.10
- PIP:blood ratio [4, 6]: 51.88 ± 10.82
- PIP:flu (PSMA+ PC3 PIP-to-PSMA− PC3 flu tumor uptake ratio) [4, 6]: 57.68 ± 27.10
- PIP:kidney ratio [4, 6]: 0.24 ± 0.04
- PSMA+ PC3 PIP tumor uptake [4, 6]: 21.08 ± 1.17 % ID/g
- PSMA− PC3 flu tumor uptake [4, 6]: 0.41 ± 0.17 % ID/g
- blood uptake [4, 6]: 0.41 ± 0.06 % ID/g
- heart uptake [4, 6]: 0.28 ± 0.06 % ID/g
- kidney uptake [4, 6]: 88.56 ± 20.09 % ID/g
- liver uptake [4, 6]: 0.33 ± 0.05 % ID/g
- lung uptake [4, 6]: 2.07 ± 0.68 % ID/g
- muscle uptake [4, 6]: 0.19 ± 0.09 % ID/g
- salivary gland uptake [4, 6]: 1.02 ± 0.22 % ID/g
- small intestine uptake [4, 6]: 0.19 ± 0.07 % ID/g
- spleen uptake [4, 6]: 8.87 ± 1.50 % ID/g
- PSMA+ PC3 PIP-to-PSMA− PC3 flu ratio ([4]; 3 h post-injection): 110.57±21.27
- PIP:blood ratio [4, 7]: 79.55 ± 9.83
- PIP:kidney ratio [4, 7]: 0.22 ± 0.04
- PIP:salivary gland ratio [4, 7]: 31.40 ± 4.85
- PSMA+ PC3 PIP tumor uptake [4, 7]: 26.86±5.59 % ID/g
- PSMA− PC3 flu tumor uptake [4, 7]: 0.25 ± 0.07 % ID/g
- blood uptake [4, 7]: 0.34 ± 0.06 % ID/g
- heart uptake [4, 7]: 0.20 ± 0.04 % ID/g
- kidney uptake [4, 7]: 119.54 ± 15.49 % ID/g
- liver uptake [4, 7]: 0.38 ± 0.15 % ID/g
- lung uptake [4, 7]: 1.26 ± 0.20 % ID/g
- muscle uptake [4, 7]: 0.14 ± 0.02 % ID/g
- salivary gland uptake [4, 7]: 0.86 ± 0.12 % ID/g
- small intestine uptake [4, 7]: 0.17 ± 0.06 % ID/g
- spleen uptake [4, 7]: 7.18 ± 2.25 % ID/g
- spleen uptake, comparison with ^68Ga-1 or ^68Ga-2 ([4]; all time-points, P<0.04): higher spleen uptake
- salivary gland uptake, comparison with ^68Ga-1 and ^68Ga-2 ([4]; up to 3 h after injection, P<0.001): significantly higher salivary gland uptake
- uptake and retention in normal tissues (kidney, blood, spleen, salivary glands, PSMA-negative PC3 flu tumors), comparison ([4]; up to 3 h post-injection): highest uptake and retention
